Measurements as given in article PMC11795093, “Investigation of the threonine metabolism of Echinococcus multilocularis: The threonine dehydrogenase as a potential drug target in alveolar echinococcosis” (International Journal for Parasitology: Drugs and Drug …, 2025).

B1: recEmTDH (Echinococcus multilocularis) (protein)
chain: HHGTGACSHQTPKILITGGLGQLGMPLARVFRSKYGQDSVILTDIKKPDPAVKDVGHFEFADIMDVDGLRELVVEHRIDWLIHFSALLSAVGEQNTPLAMQVNIGGLHNIFNVAREFNLRLFIPSTIGAFGPNSPRNPTPDDCIQQPNTIYGVSKVHAELLGMYLNHRYGLDFRSLRLPGVISADVEPGGGTTDYAIHIFKYAMRGEPYPCFLSQNTRLPMIWIDDVIRAMVEVMECPREKLKRCVYNLAGISFTPKEINEAMLRGMHRHGLAKQLKTYELKYDVDFRQKIADSWPEVLDDANARRDWGWRHEVDIDGMVDKMFEYLKAHST
notes: E. coli BL21; 979 bp insert from metacestode vesicle cDNA

These molecules were tested against T1, recEmTDH (Echinococcus multilocularis, UniProt A0A068Y017) (assay: NADH formation, absorbance at […] nm, relative to DMSO control). Details: read-out: residual activity at 20 μM.
T1 construct: gene EmuJ_000511900; E. coli BL21; 979 bp insert from metacestode vesicle cDNA
T1 sequence (A0A068Y017 31-362): B1 chain
Format: biochemical
`COc1ccc(NC(=O)c2ccc3c(=O)n(-c4cc(C(F)(F)F)ccc4Cl)c(=S)[nH]c3c2)cc1OC` [QC2] showed a remaining activity at 20 µM of 81.3 ± 1.8%. `CCN(CC)C(=S)SSC(=S)N(CC)CC` [disulfiram] showed a remaining activity at 20 µM of 41.2 ± 0.8%. `O=c1c(O)c(-c2cc(O)c(O)c(O)c2)oc2cc(O)cc(O)c12` [myricetin] was tested, and the remaining activity at 20 µM was 74.8 ± 1.7%. `O=c1c(O)c(-c2ccc(O)c(O)c2)oc2cc(O)cc(O)c12` [quercetin] was tested, and the remaining activity at 20 µM was 85.5 ± 2.8%. With `C[n+]1cc2c3c(ccc2c2ccc4cc5c(cc4c21)OCO5)OCO3` [sanguinarine] the remaining activity at 20 µM was 64 ± 4%.

These molecules were tested on C[C@@H](O)[C@H](N)C(=O)O (assay: purified protein). Details: 2 mM NAD+, 80 mM Tris-HCl pH 8.4, 37 °C.
Format: biochemical, Echinococcus multilocularis
B1 gave a Km of 8.8 ± 0.05 mM.

Each molecule was assayed on NC(=O)c1ccc[n+]([C@@H]2O[C@H](COP(=O)(O)OP(=O)(O)OC[C@H]3O[C@@H](n4cnc5c(N)ncnc54)[C@H](O)[C@@H]3O)[C@@H](O)[C@H]2O)c1 (assay: purified protein). Details: 16 mM L-Thr, 80 mM Tris-HCl pH 8.4, 37 °C, varied: cofactor.
Format: biochemical, Echinococcus multilocularis
With B1 the Km was 0.8 ± 0.01 mM.

Each molecule was assayed against T2, recMmTDH (Mus musculus, UniProt Q8K3F7) (assay: NADH formation, absorbance at […] nm). Details: 0-16 mM L-Thr, 10 mM NAD+; pH 8.4; 37 °C.
T2 construct: gene Tdh; predicted mitochondrial transfer peptide removed; E. coli BL21; synthetic gene, 991 bp insert
T2 sequence (Q8K3F7 46-373): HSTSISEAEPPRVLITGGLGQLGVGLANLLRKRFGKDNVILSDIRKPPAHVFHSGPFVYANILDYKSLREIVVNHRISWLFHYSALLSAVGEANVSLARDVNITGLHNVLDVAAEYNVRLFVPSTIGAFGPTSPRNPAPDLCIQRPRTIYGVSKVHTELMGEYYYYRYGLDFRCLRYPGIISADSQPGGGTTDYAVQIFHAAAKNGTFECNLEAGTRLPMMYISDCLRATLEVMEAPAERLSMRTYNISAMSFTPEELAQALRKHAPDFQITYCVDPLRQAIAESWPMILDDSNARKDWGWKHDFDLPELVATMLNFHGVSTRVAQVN
Format: biochemical
`C[C@@H](O)[C@H](N)C(=O)O` [L-Thr] was tested, and the “NADH formation, absorbance at 340 nm” value was “we recombinantly expressed MmTDH (S5 File) and this protein was also enzymatically active”.

These molecules were tested against T2, recMmTDH (assay: NADH formation, absorbance at […] nm, relative to DMSO control). Details: 20 μM compound; 2 mM L-Thr, 3 mM NAD+; pH 8.4; 37 °C.
Format: biochemical
In the case of `O=C(NCc1ccccc1)c1ccc2c(=O)n(-c3cccc(C(F)(F)F)c3)c(=S)[nH]c2c1` [QC1], the “residual activity at 20 μM” value is reported as “All tested compounds, except QC4, inhibited recMmTDH activity”. In the case of `COc1ccc(NC(=O)c2ccc3c(=O)n(-c4cc(C(F)(F)F)ccc4Cl)c(=S)[nH]c3c2)cc1OC` [QC2], the “residual activity at 20 μM” value is reported as “All tested compounds, except QC4, inhibited recMmTDH activity”. For `COc1ccccc1CNC(=O)c1ccc2c(=O)n(-c3cccc(C(F)(F)F)c3)c(=S)[nH]c2c1` [QC3], the “residual activity at 20 μM” value was “All tested compounds, except QC4, inhibited recMmTDH activity”. For `O=C(NCCCN1CCCC1=O)c1ccc2c(=O)n(-c3cccc(C(F)(F)F)c3)c(=S)[nH]c2c1` [QC5], the “residual activity at 20 μM” value was “All tested compounds, except QC4, inhibited recMmTDH activity”. With `CN(Cc1ccccc1)C(=O)c1ccc2c(=O)n(-c3cccc(C(F)(F)F)c3)c(=S)[nH]c2c1` [QC6] the “residual activity at 20 μM” value was “All tested compounds, except QC4, inhibited recMmTDH activity”. `O=C(O)c1ccc2c(=O)n(-c3cccc(C(F)(F)F)c3)c(=S)[nH]c2c1` [QC7] was tested, and the “residual activity at 20 μM” value was “All tested compounds, except QC4, inhibited recMmTDH activity”. In the case of `CCN(CC)C(=S)SSC(=S)N(CC)CC` [disulfiram], the “residual activity at 20 μM” value is reported as “All tested compounds, except QC4, inhibited recMmTDH activity”. `O=c1c(O)c(-c2cc(O)c(O)c(O)c2)oc2cc(O)cc(O)c12` [myricetin] was tested, and the “residual activity at 20 μM” value was “All tested compounds, except QC4, inhibited recMmTDH activity”. With `O=c1c(O)c(-c2ccc(O)c(O)c2)oc2cc(O)cc(O)c12` [quercetin] the “residual activity at 20 μM” value was “All tested compounds, except QC4, inhibited recMmTDH activity”. In the case of `C[n+]1cc2c3c(ccc2c2ccc4cc5c(cc4c21)OCO5)OCO3` [sanguinarine], the “residual activity at 20 μM” value is reported as “All tested compounds, except QC4, inhibited recMmTDH activity”.
